# Values quoted from earlier work as cited in paper PMC3880798 (Clinical cancer research : an official journal of the …, 2013).
# Read-outs that look alike come from different tables or passages of the source.
# Tests used:
# GIST = conditions: cited from earlier work
# c-Kit = conditions: intact cellular systems; cited from earlier work
# [1] = cited from earlier work
structure (smiles),measurement,setting,value
Cc1ccc(NC(=O)c2ccc(CN3CCN(C)CC3)cc2)cc1Nc1nccc(-c2cccnc2)n1 [imatinib],Median time to progression,GIST,approximately 2 years
same,Median duration of response,GIST; first-line,about 2 years
same,Potency for wild-type versus mutant c-Kit,c-Kit,significantly lower potency for wild-type c-Kit relative to mutant c-Kit
Cc1cn(-c2cc(NC(=O)c3ccc(C)c(Nc4nccc(-c5cccnc5)n4)c3)cc(C(F)(F)F)c2)cn1 [nilotinib],Disease stabilization,GIST,38%
same,Median duration of disease stabilization,GIST,12 weeks
Cc1ccc(Nc2nccc(N(C)c3ccc4c(C)n(C)nc4c3)n2)cc1S(N)(=O)=O [pazopanib],Patients with proteinuria,[1],51%
CCN(CC)CCNC(=O)c1c(C)[nH]c(/C=C2\C(=O)Nc3ccc(F)cc32)c1C [sunitinib],Incidence of PPE,[1],up to 20%
same,Median time to progression,GIST; standard second-line therapy,27 weeks
